Results: US20090281025A1, “INHIBITION OF TUMOR GROWTH AND METASTASIS BY ATF2-DERIVED PEPTIDES” (Mount Sinai School Of Medicine of New York University, priority 2004, published 2009)
“Also recorded” adds a separate entry of the source.

Experiments:
TRE-Luc = TRE-Luc luciferase reporter assay in SW1 cells; type: cell-based, mouse; settings: SW1 cells expressing peptide, luciferase after 18 hours
Description: SW1 cells constitutively expressing the indicated ATF2 peptides were transfected with either TRE-Luc (FIG. 5A) or with Jun2-Luc (FIG. 5B), and proteins were prepared for analysis of luciferase activity after 18 hours. Analysis was performed in duplicate, and the data reflect three independent experiments. SW1 cells expressing the ATF2 peptides were analyzed to establish the degree of spontaneous (basal) apoptosis as well as apoptosis 24 hours following treatment with the chemotherapeutic drug UCN-01 (FIG. 5C). The data represent triplicate analysis reproduced three times.
Alteration of ATF2 Transcriptional Activity. Assessed next was whether the short peptide caused any change in transcriptional activity mediated by ATF2 and its heterodimeric partners, using the TRE and Jun2 promoter sequences linked to the Luciferase marker gene. These reporter constructs (0.3 μg) were cotransfected with the respective expression vectors into melanoma cells (5×10^5) using Lipofectamine (Invitrogen). Luciferase activity was measured using the Luciferase assay system (Promega).

[1] = system: early-stage melanoma, melanocytes, in vitro transformed 293T cells; settings: cited from earlier work
[2] = system: MCF7 human breast cancer cells; settings: cited from earlier work
[3] = system: Human melanoma cells LU1205; assay: Caspase and PARP cleavage immunoblot in LU1205 cells; type: cell-based; settings: peptides by transfection, UCN-01 (5 μm) 24 hours
Description: Human melanoma cells LU1205 were transfected with the nucleic acid molecules that encode either ATF2^51-100 peptide or ATF2^51-60 peptide. Twenty-four hours after transfection, cells were treated with of UCN-01 (5 μm) for 24 hours. Immunoblotting analysis was performed using caspase 9 and PARP antibodies, and β-actin was used as a loading control (FIG. 6A). The same experiment was performed in SW-1 cells (FIG. 6B). Stars point to the position of the uncleaved form whereas arrows point to the cleaved products.
Effect on Apoptosis. Assessed next was the degree of apoptosis in SW1 cells under normal growth (spontaneous) as well as following treatment with chemotherapeutic drugs. Cells were analyzed to detect spontaneous (basal) or induced apoptosis [following treatment with the kinase inhibitor UCN-01 (kindly provided by NCI repository) for 36 hours]. Apoptosis was measured by using FACS (Ivanov et al., Mol. Cell, 2001, 7:517-28) to quantify the percentage of hypodiploid nuclei undergoing DNA fragmentation. Nucleation as a marker of apoptosis was monitored via DAPI staining of cells at indicated time points after their treatment. Caspase activity was monitored by immunoblots using antibodies to caspase 9 (Santa Cruz). PARP cleavage was monitored by corresponding antibodies (PharMingen).

SW1 cells = assay: Tumor growth of SW1 cells constitutively expressing ATF2 peptides, injected subcutaneously; type: in vivo, mouse; settings: 10^6 SW1 cells SC, 18 days; control construct 1100 mm^3
Description: SW1 cells, which constitutively express the peptides indicated in FIG. 4A, were analyzed to detect expression of ATF2 peptides at the RNA level using RT-PCR. The indicated MW bands reflect the expected size product. SW1 cells (10^6) were injected subcutaneously into […] mice and tumor growth was monitored for 18 days, at which point tumors were removed and their size carefully assessed (FIG. 4B). Each group included 6 animals and each experiment was performed twice (P<0.01; T-test).
Inhibition of Tumor Growth. To examine the importance of the JNK association domain on ATF2, the possible role of a smaller peptide containing an intact JNK binding site (i.e., amino acids M^51T^52 of ATF2) was examined. To this end, three peptides of differing sizes (amino acids 51-80, 51-70, and 51-60) were compared to ATF2^51-100 peptide in their ability to inhibit tumor growth of SW1 cells in vivo. RT-PCR reactions confirmed the expression of these peptides' transcripts in the SW1 cells (FIG. 4A). […] However, expression of the 50aa peptide in these cells (constitutive expression based on selection of drug-resistant cells) decreased tumor size to 300 mm^3. Strikingly, constitutive expression of each of the 3 shorter peptides also elicited inhibition of melanoma growth that varied from 400-600 mm^3 (FIG. 4B). […] Further evaluation was performed on this 10 amino acid peptide.

human melanoma cells = settings: cited from earlier work
[4] = system: LU1205 human melanoma cells; assay: Growth of LU1205 human melanoma tumors expressing ATF2 peptide in nude mice; type: in vivo, mouse
Source text: LU1205 or FEMX human melanoma tumor-derived cell lines that constitutively express ATF2^51-100 peptide or that contain control vector were each injected subcutaneously into a group of 6 nude mice (10^6 cells per injection) per cell line per experiment. […] The data shown represent three experiments. Bars represent standard deviation, P<0.0015. […] The data shown represent three experiments. Bars represent standard deviation, P<0.0021.
The ability of expressed ATF2^51-100 peptide to affect the tumorigenicity of human melanoma cells in vivo was examined. To this end, growth of LU1205 and FEMX human melanoma cells were monitored in nude mice in the presence or absence of treatment that induced apoptosis in vitro. LU1205, FEMX and SW-1 cells that express control or ATF2^51-100 peptide were trypsinized, resuspended in PBS and injected SC (1×10^6) into 6-7 week old mice in the lower flank. When the tumor reached the size of about 50 mm^3, 10 μM of SB203580 was injected into 4 areas of the LU1205 tumors every 4 days during a 2 week period. For FEMX tumors, UCN-01 (5 mg/Kg) was fed by gavage, three times per week for a total of 2 weeks. Tumor growth was monitored every two days. Tissue samples were fixed in formalin and embedded in paraffin. Hematoxylin and eosin (H&E), TUNEL staining was performed as previously described (Bhoumik et al., Clin. Cancer Res., 2001; 2:331-342).

JNK = settings: cited from earlier work

Substance: ATF2^51-100: amino-terminal peptide of ATF2, amino acid residue 51 to 100 (about a 50 amino acid peptide), expressed in tumor cells (MTLKFGPARNDSVIVADQTPTPTRFLKNCEEVGLFNELASPFENEFKKAS; UniProt P15336 51-100, looked up, fragment)
- TRE-Luc activity (TRE-Luc): marked increase
- sensitization by ATF2 peptide [1]: not in early-stage melanoma, or melanocytes, or in in vitro transformed 293T cells
- sensitization by ATF2 peptide [2]: also observed
- activation of caspase 9 (cleavage fragments) [3]: activation of caspase 9 even prior to treatment with UCN-01
- tumor size (SW1 cells): 300 mm^3
- degree of programmed cell death (spontaneous and induced apoptosis) (human melanoma cells; combined with an inhibitor of the p38 catalytic activity): increase in the degree of programmed cell death
- sensitivity to UV radiation or mitomycin C, adriamycin and verapamil, or UCN-01 (apoptosis assays) (human melanoma cells; compared with three other 50 amino acid amino-terminal ATF2 peptides): most efficient increase in the sensitivity
- cell surface expression of Fas (human melanoma cells; late stage melanoma cells): increased cell surface expression of Fas
- tumor growth rate ([4]; LU1205 cells constitutively expressing peptide, SC in nude mice): reduced the growth rates; also recorded: inhibits growth
- tumor growth with additional treatment ([4]; peptide-expressing LU1205 tumors plus p38 inhibitor SB203580 10 μM intratumoral): additional decrease in growth
- basal JNK activity (JNK): increased basal JNK activity
- binding to JNK (JNK): binds to JNK
